Test results from patent US11266675B2, “Methods of treatment of viral infection and uses of anti-HSC70 inhibitors” (priority 2018, dated 2022).

Columns and labels:
EV-A71 viral protein VP1 = assay: Western blot of viral protein in infected RD cells; format: cell-based, Enterovirus A71 (SHZH98 strain)
Experimental: (§1) Total protein was extracted from cell lysis in RIPA buffer with protease inhibitor and phosphatase Inhibitor (Roche). A total of 10-30 μg protein was loaded for SDS-PAGE and transferred onto PVDF membranes. Membranes were blocked with 5% non-fat milk in Tris-buffered saline buffer with 0.1% Tween-20 (TBST) for 1 hour at room temperature and incubated with primary antibodies overnight at 4° C. After washing with TBST three times, the membranes were incubated with the corresponding horseradish peroxidase (HRP)-conjugated secondary antibodies for 1 hour at room temperature. The Hsc70 protein level was detected using an Hsc70-specific antibody (sc-13132, Santa Cruz Biotechnology, USA). The band density was quantified using Quantity One software (Bio-Rad). GADPH served as loading control. The western blotting was carried out in three times for confirmation of results.
The mRNA level of Hsc70 was detected by qRT-PCR and the protein level was detected by western blotting. […] The extracellular virus levels were detected by qRT-PCR. […] The viral titer in the supernatant was determined by TCID50 assay. […]
(§2) In FIG. 5A, cell images under light microscope. […] In FIG. 5C, EV-A71 IRES activity detected by luciferase activities are shown. […]

EV-A71 [1] = assay: Extracellular viral RNA / virus yield in supernatant by qRT-PCR; format: cell-based, Enterovirus A71 (SHZH98 strain); conditions: RD cells; for Virus yield in the supernatants vs scrambled control: siRNA 48 hours, EV-A71 MOI of 10, nine hours p.i.
Experimental: (§3) Total RNA was extracted from cell lysis using TRIzol reagent (Ambion, Life Technologies). Quantitative Real-time PCR (qRT-PCR) was performed using SYBR Green Mix (Life Technologies) on applied Biosystems StepOne real-time PCR system. The comparative ΔΔCt method was used to calculate the relative expression of microRNA or mRNA normalized to β-actin mRNA.
(§4) The mRNA level of Hsc70 was detected by qRT-PCR and the protein level was detected by western blotting. […] The extracellular virus levels were detected by qRT-PCR. […] The viral titer in the supernatant was determined by TCID50 assay.
To address the drug target potential of Hsc70 against EV-A71, experiments were conducted to examine if Ver-155008, a chemical inhibitor of Hsc70, could protect cells from EV-A71 infection. In this regard, RD cells were pre-treated for 2 hours with Ver-155008, then infected the cells with EV-A71 for another 9 hours at an MOI of 10.
In FIG. 5A, cell images under light microscope. In FIG. 5B, proteins levels of VP0/2 by western blot are shown. In FIG. 5C, EV-A71 IRES activity detected by luciferase activities are shown. (n=3; ***, p<0.001). In FIG. 5D, there is shown the extracellular viral RNA levels were examined by qRT-PCR.

EV-A71 IRES = assay: Dual-luciferase IRES reporter assay; format: cell-based; conditions: Ver-155008 treatment
Text: Human Hsc70 (Accession NM_006597) was purchased from Addgene (Cat. No. 19541). The EV-A71 report plasmid pIRES was constructed as previously described. In detail, the EV-A71 reportor plasmid pIRES was constructed as follows: Renilla Luciferase gene (RLuc) was inserted into pcDNA4/HisMax B between BamHI and EcoRV sites; EV-A71 IRES was amplified from EV-A71 virus strain (SHZH98). Firefly Luciferase gene (FLuc) was amplified by using primer which has overlap sequence with the C-terminal of EV-A71 IRES. Finally, the construct IRES-FLuc were then amplified by using overlap PCR, and inserted into the downstream of the Renilla Luciferase gene between EcoRV and XbarI sites. […]
HEK 293T cells were seeded into a 24-well plate and incubated at 37° C. overnight and then transfected with Hsc70 expression plasmid (pHsc70) or siRNA. […] The activity of RLuc and FLuc were assessed by bioluminometer using a dual-luciferase reporter assay (Promega) according to the manufacturer.
FIG. 3A is concerned with 293T cells were co-transfected with si-Hsc70 and IRES reporter plasmid for forty-eight hours. […] Proteins which interact with the RNAs were detected by immunoblotting with specific antibody. […]
as §2

RD cells = assay: Cell viability assay (MTT); format: cell-based, Human; conditions: serial dilution of Ver-155008 for 24 hours
Experimental: RD cells were seeded in 96-well plates (5,000 cells/well) and treated with serial dilution of Ver-155008 for 24 hours for cell viability assay. Ten μL of MTT was added to cultured cells in 100 μl culture medium and incubated at 37° C. for 4 h. Subsequently 100 μl of Dimethyl Sulfoxide were added. The optical density was measured at a wavelength of 570 nm. The cell viability assay was carried out in triplicates by three independent experiments as previously described.

EV-A71 [2] = assay: Cytopathic effect (CPE) assay; format: cell-based, Enterovirus A71 (SHZH98 strain)
Experimental: (§5) Human rhabdomyosarcoma (RD) cells were purchased from ATCC (CCL-136). The Dulbecco's modified Eagle's medium (DMEM) with 10% fetal bovine serum (FBS) were used for cell culture, supplemented with 100 U/ml penicillin and 100 μg/ml streptomycin Propagation of EV-A71 (SHZH98 strain, accession number AF302996) was the same as previous report. The viral titer was measured by TCID50 assays.
CPE assay was used to test the antiviral effect of Ver-155008. Ver-155008 was from Selleckchem (Cat. No. S7751). RD cells were seed in 96-well plate at 37° C. overnight, was then treated with indicated concentration of Ver-155008. […] CPE was monitored and recorded from time to time under a phase-contrast microscope. The concentration required to reduce the EV-A71-induced CPE by 50% (IC50) was determined by using the nonlinear regression analysis of SPSS 17.0. Data were shown as mean values with standard deviations from three independent assays. Selectivity index (SI) is calculated by the ratio of CC50 to IC50.

EV-A71 [3] = assay: 2Apro-regulated viral protein production in HEK 293T cells, western blot (VP0/2 antibody); format: cell-based, Enterovirus A71 (SHZH98 strain); conditions: si-Hsc70 then 2Apro expression plasmid, EV-A71 MOI of 5 for 9 hours
Experimental: as §1
In FIG. 4A, HEK 293T cells were co-transfected with pHsc70, pIRES reporter plasmid and 2A^pro-expressing plasmid or empty vector for forty-eight hours, then the reporter activity was measured. In FIG. 4B, HEK 293T cell extract was incubated with the His-tagged 2A^pro, pulled down and then analyzed by western blotting. […] The cleavage products were assessed by immunoblotting. […] The viral protein production was detected by western blotting by using VP0/2 antibody (n=3).

EV-A71 [4] = assay: Viral titer in supernatant by TCID50 assay; format: cell-based, Enterovirus A71 (SHZH98 strain); conditions: RD cells, siRNA 48 hours, EV-A71 9 hours, culture media
Experimental: as §5, §4

EV-A71 [5] = assay: Intracellular viral RNA (positive and negative strand) by qRT-PCR; format: cell-based, Enterovirus A71 (SHZH98 strain); conditions: RD cells
Experimental: as §3, §4

Compound	Viral VP1 levels (western blot) (EV-A71 viral protein VP1; RD cells pre-treated 2 hours with Ver-155008, EV-A71 MOI of 10, 9 hours)	Decrease of secreted virions (extracellular viral RNA, qRT-PCR) (EV-A71 [1]; 8 μM, EV-A71 MOI of 10, 9 hours) [%]	EV-A71 IRES activity (luciferase) (EV-A71 IRES)	CC50 (RD cells; read-out: Cytotoxity CC50) [µM]	CC90 (RD cells; read-out: Cytotoxity CC90) [µM]	IC50 (EV-A71 [2]; RD cells infected with EV-A71 at MOI of 0.01, read-out: Antiviral activity IC50 (concentration reducing EV-A71-induced CPE by 50%)) [µM]	Cytopathic effect (CPE) (EV-A71 [2]; RD cells, 8 μM, 2 h pre-treatment, EV-A71 MOI of 10 for 9 hours)	Selective Index SI (CC50/IC50) (EV-A71 [2]; RD cells, EV-A71)	Virus yield in the supernatants vs scrambled control (EV-A71 [1])	2Apro-elicited production of viral protein after knockdown of Hsc70 (EV-A71 [3])	Decrease of virus titer vs scramble siRNA control (TCID50) (EV-A71 [4])	EV-A71 viral protein VP1 (western blot) vs control cells (EV-A71 viral protein VP1; RD cells with Hsc70 knockdown, EV-A71 MOI of 10)	Decrease of negative strand viral RNA level (EV-A71 [5]; EV-A71 MOI of 10, 3 hours p.i.)	Decrease of positive strand viral RNA level (EV-A71 [5]; EV-A71 MOI of 10, 3 hours p.i.)	Decrease of negative strand viral RNA level (EV-A71 [5]; EV-A71 MOI of 10, 6 hours p.i.)	Decrease of positive strand viral RNA level (EV-A71 [5]; EV-A71 MOI of 10, 6 hours p.i.)	Decrease of negative strand viral RNA level (EV-A71 [5]; EV-A71 MOI of 10, 9 hours p.i.)	Decrease of positive strand viral RNA level (EV-A71 [5]; EV-A71 MOI of 10, 9 hours p.i.)	Inhibitory effect on viral RNA levels (EV-A71 [5]; EV-A71 MOI of 10, 12 hours p.i.)
N#Cc1ccc(COC[C@H]2O[C@@H](n3c(NCc4ccc(Cl)c(Cl)c4)nc4c(N)ncnc43)[C@H](O)[C@@H]2O)cc1 [Ver-155008]	obviously repressed by Ver-155008 in a dose dependent manner	55	declined in a dose-dependent manner	47.7	91.9 ± 0.94	2.01	nearly no obvious cytopathic effect	23.71											
5′-CCUAAAUUCGUAGCAAAUU-3′ (SEQ ID NO: 2) (other siRNA strand not cited, further chemistry not given here) [si-Hsc70-2, small interfering RNA targeting human Hsc70 (NM_006597), synthesized from Genepharma]									obviously decreased										
5′-UAAUUCUAAGUACAUUGAGACCAGC-3′ (SEQ ID NO: 1) (other siRNA strand not cited, further chemistry not given here) [si-Hsc70-1, small interfering RNA targeting human Hsc70 (NM_006597), synthesized from Genepharma]									obviously decreased	failed to elicit the production of viral protein	more than 10 times	significantly decreased	about 86%	about 86%	about 70%	about 70%	about 70%	about 70%	still significant
